From patent US7414042B2, “Method and composition for selectively inhibiting melanoma” (The Board of Trustees of The University of Illinois, priority 1995, dated 2008)
Converted amounts (≈) assume the structure as drawn. “Also recorded” adds a separate entry of the source.

Tests used:
[1] = test system: P-388 murine lymphocyte; settings: tests conducted by the National Cancer Institute; cited from earlier work
[2] = 200 and 400 mg/kg doses; cited from earlier work
[3] = test system: human melanoma cells (MEL-2); assay: In vivo activity against established MEL-2 melanomas in athymic mice; settings: treatment from day 13, IP every third day; betulinic acid/PVP 250 mg/kg/dose, DTIC 4 mg/kg/dose
Method: Next, in vivo testing of betulinic acid was performed on established melanomas. In this study, treatment was withheld until day 13, by which time a palpable tumor mass was present in all mice.
In particular, with respect to FIG. 2, four-week-old athymic mice were injected with 5×10^8 MEL-2 cells subcutaneously in the right flank. Four treatment groups of five mice each were studied. In one group, the mice received 250 mg/kg/dose of IP betulinic acid/PVP every third day for six total doses initiated the day following tumor cell injection. The control group received 0.5 ml IP saline. A DTIC treatment group received 4 mg/kg/dose IP DTIC every third day from day 13 to day 28 of the study. The betulinic acid treatment group received 250 mg/kg/dose IP betulinic acid/PVP every third day from day 13 to day 27. The control and DTIC-treated mice were sacrificed and autopsied on day 36 due to their large tumor burden. The remaining mice were sacrificed and autopsied on day 41.

[4] = test system: Walker 256 murine carcinosarcoma; settings: cited from earlier work
[5] = test system: human lymphocytes; assay: Formation of the 50 Kbp DNA fragment in normal cells; assay type: cell-based; settings: 2 and 20 μg/ml, time-course
[6] = test system: MEL-4; assay: Dose-response study, additional human melanoma cell line; assay type: cell-based
Method: (§1) Moreover, the cytotoxic response mediated by betulinic acid is not exclusively limited to the MEL-2 melanoma cell line.
(§2) The plates were incubated for three days. […] Dose response studies were performed to generate ED50 values.

[7] = test system: MEL-3; assay: as above; assay type: cell-based
Method: as §1, §2

[8] = test system: MEL-1; assay: as above; assay type: cell-based
Method: as §1, §2

[9] = test system: LNCaP (prostate); assay: Cytotoxicity against cultured human cancer cells (SRB); assay type: cell-based; settings: Homo sapiens, LNCaP, 72 h; three days incubation, SRB; read-out: ED50 LNCaP
Method: as §2

[10] = test system: LU-1 (lung); assay: as above; assay type: cell-based; settings: Homo sapiens, 72 h, three days incubation, read-out: ED50 LU-1
Method: as §2

[11] = test system: HT-1080 (sarcoma); assay: as above; assay type: cell-based; settings: Homo sapiens, HT-1080, 72 h, three days incubation, read-out: ED50 HT-1080
Method: as §2

[12] = test system: ZR-75-1 (breast); assay: as above; assay type: cell-based; settings: Homo sapiens, ZR-75-1, 72 h; three days incubation, SRB; read-out: ED50 ZR 75-1
Method: as §2

[13] = test system: KB (human oral epidermoid carcinoma); assay: as above; assay type: cell-based
Method: as §2

[14] = test system: COL-2 (colon); assay: as above; assay type: cell-based; settings: Homo sapiens, Col2, 72 h; three days incubation, SRB; read-out: ED50 COL-2
Method: as §2

[15] = test system: A431 (squamous cells); assay: as above; assay type: cell-based; settings: Homo sapiens, A-431, 72 h; three days incubation, SRB; read-out: ED50 A431
Method: as §2

[16] = test system: U373 (glioma); assay: as above; assay type: cell-based; settings: Homo sapiens, U373 MG, 72 h; three days incubation, SRB; read-out: ED50 U373
Method: as §2

[17] = test system: BC-1 (breast); assay: as above; assay type: cell-based; settings: Homo sapiens, 72 h; three days incubation, SRB; read-out: ED50 BC-1
Method: as §2

[18] = test system: human melanoma cells (MEL-2); assay: In vivo activity against unestablished MEL-2 tumors in athymic mice; parameters: species or system athymic (nude) mice
Method: To test the in vivo ability of betulinic acid to serve as an antineoplastic agent against malignant melanoma, a series of studies was performed with athymic (nude) mice injected subcutaneously with human melanoma cells (MEL-2). The initial study investigated the activity of betulinic acid against unestablished tumors. Treatment with betulinic acid began on day 1, i.e., 24 hours, following tumor cell injection. […] Such a discovery is important for individuals who are predisposed to melanoma due to hereditary or environmental factors.
In particular, the data plotted in FIG. 1 was derived from experiments wherein four week old athymic mice were injected subcutaneously in the right flank with 3.0×10^8 UISO MEL-2 cells. UISO MEL-2 is a cell line derived from metastatic melanoma from human pleural fluid. Drug treatment was initiated on the day following tumor cell injection and continued every fourth day for a total of six doses. Four control animals received 0.5 ml intraperitoneal (IP) of PVP control solution, while treated animals (4 per group) received 50, 250 or 500 mg/kg/dose IP betulinic acid/PVP in deionized H2O. Betulinic acid was coprecipitated with PVP to increase solubility and bioavailability. The mice were weighed, and the tumors measured with a micrometer every other day throughout the study. […]

C=C(C)[C@@H]1CC[C@]2(C(=O)O)CC[C@]3(C)[C@H](CC[C@@H]4[C@@]5(C)CC[C@H](O)C(C)(C)[C@@H]5CC[C@]43C)[C@@H]12 [Compound 10, 3β-hydroxy-lup-20(29)-ene-28-oic acid]
antitumor activity, P-388 [1]: activity was not supported | activity in Hippocratic screen [2]: inactive | tumor growth, established MEL-2 tumors (FIG. 2) [3]: successfully abrogated tumor growth; also recorded: significantly less than that observed in the DTIC-treated animals | antitumor activity, Walker 256, subsequent report ([4]; 400 mg/kg): inactive | antitumor activity, Walker 256 ([4]; 300 and 500 mg/kg body weight): dose-dependent activity | formation of the 50 Kbp fragment in human lymphocytes [5]: did not demonstrate formation of the 50 Kbp fragment | ED50 MEL-4 [6]: 4.8 µg/mL (≈ 10.5 µM) | ED50 MEL-3 [7]: 3.3 µg/mL (≈ 7.23 µM) | ED50 MEL-1 [8]: 1.1 µg/mL (≈ 2.41 µM) | IC50 [9]: > 20 µg/mL | IC50 [10]: > 20 µg/mL | IC50 [11]: > 20 µg/mL | IC50 [12]: > 20 µg/mL | IC50 ([13]; Homo sapiens, 72 h, three days incubation, SRB, Table 1, read-out: ED50 KB): > 20 µg/mL | ED50 (Std. Dev.) KB ([13]; derivatives, Tables 2-6): >20 µg/mL | IC50 [14]: > 20 µg/mL | IC50 [15]: > 20 µg/mL | IC50 [16]: > 20 µg/mL | IC50 [17]: > 20 µg/mL | tumor development, MEL-2, treatment from the day following cell injection (FIG. 2) ([18]; 250 mg/kg/dose IP betulinic acid/PVP every third day, six doses, p=0.0001): significantly inhibited tumor development | inhibition of tumor growth, nonestablished MEL-2 tumors (FIG. 1) ([18]; 50, 250, 500 mg/kg/dose IP as betulinic acid/PVP, every fourth day, six doses from day 1, p 0.001 each dose versus control): effective inhibition of tumor growth; also recorded: greater inhibition of tumor growth at the highest dose
